Data as given in patent US10947251B2, “Therapeutic compounds and methods of use thereof” (GENENTECH, INC., priority 2018, dated 2021).

Tests used:
[1] = biological target: T1, hNav1.7 (Homo sapiens (Human), UniProt Q15858); assay: Electrophysiological assay (EP), voltage clamp on Syncropatch 384PE; assay type: cell-based; conditions: CHO cells expressing Nav1.7, holding potential −50 mV, 7.5 min compound incubation; read-out: EP_SP hNav1.7 EVO IC50
[2] = biological target: T1, hNav1.7; assay: Tritiated compound binding to membranes from cells heterologously expressing hNav1.7 and the β1 subunit (LBA); conditions: competitive binding vs [3H]compound, membranes with hNav1.7 and β1 subunit; read-out: Nav1.7 LBA EVO IC50

SMILES	IC50 [1]	IC50 [2]
COc1cc(-c2cccc(C(F)(F)F)c2)c(F)cc1N1C(=O)OC[C@H]2CN(S(=O)(=O)Nc3ccon3)CC[C@@H]21 [Example 34, (4aS,8aS)-1-(2-fluoro-5-methoxy-3′-(trifluoromethyl)-[1,1′-biphenyl]-4-yl)-N-(isoxazol-3-yl)-2-oxohexahydro-2H-pyrido[4,3-d][1,3]oxazine-6(4H)-sulfonamide]	196 nM	2000 nM
COc1cc(-c2cccc(C(F)(F)F)c2)c(F)cc1N1C(=O)CC[C@@H]2CN(S(=O)(=O)Nc3ccon3)CC[C@H]21 [Example 35, (4aR,8aR)-1-(2-fluoro-5-methoxy-3′-(trifluoromethyl)-[1,1′-biphenyl]-4-yl)-N-(isoxazol-3-yl)-2-oxooctahydro-1,6-naphthyridine-6(2H)-sulfonamide]	2.88 nM	49.3 nM
COc1cc(-c2cccc(C(F)(F)F)c2)c(F)cc1N1C(=O)CC[C@@H]2CN(S(=O)(=O)Nc3ccon3)CC[C@@H]21 [Example 38, (4aR,8aS)-1-(2-fluoro-5-methoxy-3′-(trifluoromethyl)-[1,1′-biphenyl]-4-yl)-N-(isoxazol-3-yl)-2-oxooctahydro-1,6-naphthyridine-6(2H)-sulfonamide]	10.7 nM	641 nM
